Earlier results on 24 substances are cited in paper PMC8198792, “Prediction of Anticancer Peptides with High Efficacy and Low Toxicity by Hybrid Model Based on 3D Structure of Peptides” (International Journal of Molecular Sciences, 2021).

Like-named read-outs stand apart in the source and are kept apart here.

This data set deals with cancer cell lines. The arrangement: method as in 6 sources, ref CancerPPD [45] and SATPdb ||| ref CancerPPD/SATPdb ||| ref CancerPPD, SATPdb, Swissprot (PDB) ||| ref CancerPPD/SATPdb/Swissprot(PDB) ||| ref CancerPPD / SATPdb ||| ... To be noted: cited from earlier work. An excerpt:
Supplement ijms-22-05630-s001.zip/ACPs(seguence).xlsx, sheet "D1" | column: Activity || Supplement ijms-22-05630-s001.zip/ACPs(seguence).xlsx, sheet "D2" | column: Activity || Supplement ijms-22-05630-s001.zip/ACPs(seguence).xlsx, sheet "D3" | column: Activity || (+ 2 further places)

[1] abbreviates: ACPs dataset D5 (sheet "D5"), label 1 = ACP (positive set), 0 = non-ACP (negative set), ref CancerPPD [45] and SATPdb.
Where [2] appears, read: ACPs dataset sheet D2, 1 = ACP (CancerPPD/SATPdb ID), 0 = non-ACP (Swissprot/PDB ID), ref CancerPPD, SATPdb, Swissprot (PDB).
[3] abbreviates: ACPs dataset D1, label 1 = ACP, 0 = non-ACP (non-anticancer AMPs from SATPdb), ref CancerPPD/SATPdb.
The mark [4] stands for this setting: ACPs dataset D4 (sheet "D4"), label 1 = ACP (CancerPPD ID), 0 = non-ACP (non-anticancer AMP, SATPdb ID), ref CancerPPD [45] and SATPdb.
Setting [5] is: ACPs dataset D3 (supplement sheet "D3"), 1 = ACP, 0 = non-ACP, ref CancerPPD [45] and SATPdb.
[6] abbreviates: ACPs dataset D1, 1 = ACP (positive), 0 = non-ACP (negative), label taken from databases, ref CancerPPD [45] and SATPdb.
The mark [7] stands for this setting: ACPs dataset D2 (supplement ACPs(seguence).xlsx, sheet D2), dataset label 1/0 (ACP / non-ACP), entries identified by Swissprot(PDB ID), ref CancerPPD/SATPdb/Swissprot(PDB).
The mark [8] stands for this setting: ACPs dataset D5, sheet "D5", label 1 = ACP, 0 = non-ACP, ref CancerPPD [45] and SATPdb.
Where [9] appears, read: ACPs dataset D4 (sheet "D4"), label 1 = ACP, experimentally validated ACPs, ref CancerPPD [45] and SATPdb.
The mark [10] stands for this setting: ACPs dataset D5 (sheet "D5"), label 1 = ACP (positive set), sequences with CancerPPD/SATPdb ID, ref CancerPPD, SATPdb.
Where [11] appears, read: ACPs dataset D4 (sheet "D4"), label 1 = ACP, 0 = non-ACP, ref CancerPPD / SATPdb.

As to “CSNLSTCVLGKLSQELHKLQTYPRTDVGAGTP [1BKU NMR - A 1-32]”, the Activity under setting [1] was 0 and the Activity under setting [2] is reported as 0.

Turning to CLRIGMRGRELMGGIGKTM [satpdb12393], the Activity is, setting by setting: under setting [3], 0; under setting [4], 0.

For the substance GMWSKILGKLIR [compound 3638], the Activity runs as follows: under setting [5], 1; under setting [4], 1; under setting [1], 1.

As to “RLGDILQKAREKIEGGLKKLVQKIKDFFGKFAPRTES [satpdb11337]”, the Activity runs as follows: under setting [6], 0; under setting [4], 0.

As to “PIEVNDDCMACEACVEICPDVFEMNEEGDKAVVINPDSDLDCVEEAIDSCPAEAIVRS [1F2G;1FXD X-ray 1.70 A 1-58]”, the Activity is listed as 0 under setting [7] and 0 under setting [8].

On to “TITLSTCAILSKPLGNNGYLCTVTKECMPSSCN [satpdb12698]”, for which the Activity under setting [3] is on record as 0 and the Activity under setting [4] is 0.

“RICPRIWMEC KRDSDCMAQC ICVDGHCG [1F2S X-ray 1.79 I 1-28]”: the Activity by setting is: under setting [1], 0; under setting [2], 0.

FLPFIARLAAKVFPSIICSVTKKC [satpdb10560]: the Activity under setting [6] is listed as 0 and the Activity under setting [4] is listed as 0.

Consider “LPKWKVFKKIEKVGRNIRNGIVKAGPAIAVLGEAKALG [compound 4275]”, for which the Activity is on record as 1 under setting [5], 1 under setting [4] and 1 under setting [1].

FAKLA [compound 1859]: the Activity is reported as 1 under setting [5], 1 under setting [9] and 1 under setting [10].

GMWSKILGHLKR [compound 3637]: the Activity reads like this: under setting [5], 1; under setting [4], 1; under setting [1], 1.

As for FFGTALKIAANVLPTAICKILKKC [satpdb13355], the Activity by setting is: under setting [3], 0; under setting [11], 0.

In the case of FLPIVGRLISGLL [satpdb10939], the Activity is, setting by setting: under setting [5], 0; under setting [11], 0; under setting [8], 0.

Consider FKLFKKIPKFLHLAKKF [compound 1124], for which the Activity reads like this: under setting [5], 1; under setting [9], 1; under setting [10], 1.

As for “KWKSFlKTFKSlKKTVLHTLLKAISS [compound 3770]”, the Activity is recorded as 1 under setting [5], 1 under setting [4] and 1 under setting [1].

In the case of “MEKVQYLTRSAIRRASTIEMPQQARQNLQNLFINFCLILICLLLICIIVMLL [1N7L NMR - A 1-52]”, the Activity under setting [7] is given as 0 and the Activity under setting [8] is recorded as 0.

As to “KDCKRESNTFPGICITKPPCRKACIREKFTDGHCSKILRRCLCTKPC [5KK4 X-ray 1.70 A/B/C/D/E/F 1-47]”, the Activity is on record as 0 under setting [7] and 0 under setting [1].

As to KWKLFKKIPKFLHLAKK [compound 1119], the Activity is 1 under setting [5], 1 under setting [4] and 1 under setting [1].

Consider SKWSECSRTCGGGVKFQER [satpdb16830], for which the Activity by setting is: under setting [6], 1; under setting [9], 1; under setting [10], 1; under setting [2], 1.

On to GLFVGLAKVAAHNNPAIAEHFQA [compound 4390], for which the Activity was 1 under setting [6], 1 under setting [9], 1 under setting [10] and 1 under setting [2].

For GKWLSLLKHILK [compound 3661], the Activity runs as follows: under setting [5], 1; under setting [4], 1; under setting [1], 1.

For “MKVRSSVKKMCDNCKVVRRHGRVLVICSNVKHKQRQG [2ZJR X-ray 2.91,4,1-37]”, the Activity was 0 under setting [7] and 0 under setting [1].

“GIPCAESCVWIPCTVTALLGCSCSNKVCYN [satpdb12637]”: the Activity runs as follows: under setting [3], 0; under setting [4], 0.

For NVWKKILGKIIKVVK [compound 4347], the Activity is, setting by setting: under setting [5], 1; under setting [4], 1; under setting [1], 1.
